Test results reported in the NIST ThermoML archive (doi:10.1016/j.jct.2004.11.015).
Numbers after ± are expanded uncertainties.

How the values were obtained:
[1] = Liquid; for mass density: 101.33 kPa
[2] = refractive index (Na D-line) (dimensionless); conditions: 101.33 kPa, Liquid, Abbe refractometer

SMILES	mass density ([1]; 298.15 K) [kg/m3]	refractive index ([2]; 298.15 K)	other results
CC(=O)CC(C)C [4-methylpentan-2-one]	796.3 ± 1.2	1.3936 ± 0.0007	vapor or sublimation pressure ([1]; 387.15 K): 94.7 ± 9.6 kPa
CC(=O)N(C)C [N,N-dimethylethanamide]	936.3 ± 1.5	1.4356 ± 0.0007	vapor or sublimation pressure ([1]; 415.35 K): 94.7 ± 9.6 kPa
ClCC1CO1 (centres undefined) [1-chloro-2,3-epoxypropane]	1174.6 ± 2	1.4358 ± 0.0007	vapor or sublimation pressure ([1]; 389.15 K): 94.7 ± 9.6 kPa
CC(=O)c1ccccc1 [acetophenone]	–	–	mass density ([1]; 293.15 K): 1028.1 ± 1.3 kg/m3; vapor or sublimation pressure ([1]; 472.25 K): 94.7 ± 9.6 kPa; refractive index ([2]; 293.15 K): 1.5342 ± 0.0007
C=CC#N [acrylonitrile]	800.4 ± 1.3	1.3888 ± 0.0007	vapor or sublimation pressure ([1]; 348.85 K): 94.7 ± 9.6 kPa
CCCCCO [pentan-1-ol]	815 ± 1	1.4085 ± 0.0007	vapor or sublimation pressure ([1]; 400.15 K): 94.7 ± 9.6 kPa

More lines, main results first:

mass density ([1]; 298.15 K) [kg/m3]	refractive index ([2]; 298.15 K)	SMILES	other results
939.8 ± 1.5	1.4984 ± 0.0007	Cc1ccccn1 [2-methylpyridine]	vapor or sublimation pressure ([1]; 398.05 K): 94.7 ± 9.6 kPa
862.5 ± 1.1	1.4932 ± 0.0007	CCc1ccccc1 [ethylbenzene]	vapor or sublimation pressure ([1]; 407.05 K): 94.7 ± 9.6 kPa
